Ki data for three molecules are collected here from BindingDB's records for doi:10.1016/0960-894X(95)00340-Y (1995).

As a reminder, the Ki is a measure of affinity in units of concentration, obtained from inhibition or displacement. A low value points to higher affinity.

Counter-ions that a name gives are not always drawn.

The target of this test is Leukotriene B4 receptor 1 (Cavia porcellus). Kind of test: Binding affinity against Guinea pig membrane LTB4 Receptor.
On to `CCCc1cc(CC)c(OCCCCCC(C)(C)c2nn[nH]n2)cc1O` [Sodium salt of 4-Ethyl-5-[6-methyl-6-(2H-tetrazol-5-yl)-heptyloxy]-2-propyl-phenol], for which the inhibitory constant (Ki) amounted to 14 nM.

Turning to `CCc1cc(CC)c(OCCCCCC(C)(C)c2nn[nH]n2)cc1O` [sodium 2,4-diethyl-5-[6-methyl-6-(2H-1,2,3,4-tetraazol-5-yl)heptyloxy]phenol], the Ki stood at 17 nM.

Take `CCCCCCc1cc(CC)c(OCCCCCC(C)(C)c2nn[nH]n2)cc1O` [sodium 4-ethyl-2-hexyl-5-[6-methyl-6-(2H-1,2,3,4-tetraazol-5-yl)heptyloxy]phenol]: the Ki turned out to be 33 nM.
